Experimental data published in the Deep4Chem optical property database.
Where “and” joins values, the source holds several entries; their conditions need not be identical. Equal entries are not always repeated.

Assay: solvent given as SMILES

Compound: CC1(C)C(/C=C/C2=C(Cl)C(=C/C=C3/N(Cc4ccc([N+](=O)[O-])cc4)c4ccccc4C3(C)C)/CCC2)=[N+](Cc2ccc([N+](=O)[O-])cc2)c2ccccc21
- absorption maximum (in CO): 785 nm

Compound: CCN(CC)c1ccc([N+]2=Cc3ccc4c5c(ccc4c3O[B-]2(c2ccccc2)c2ccccc2)C=[N+](c2ccc([N+](=O)[O-])cc2)[B-](c2ccccc2)(c2ccccc2)O5)cc1
- absorption maximum (in C1CCOC1): 547 nm
- absorption maximum (in CC#N): 539 nm
- absorption maximum (in CC(C)=O): 541 nm
- absorption maximum (in Cc1ccccc1): 555 nm
- absorption maximum (in ClCCl): 559 nm

Compound: CCCCN(CCCC)c1ccc2c#cc3cc4c#cc5ccc(C(F)(F)F)cc5c#cc#cc5cc(N(CCCC)CCCC)ccc5c#cc4cc3c#cc3ccc(C(F)(F)F)cc3c#cc#cc2c1
- absorption maximum (in ClCCl): 472 nm

Compound: O=S1(=O)c2ccccc2C2(c3cc(-c4ccc(N(c5ccccc5)c5ccccc5)cc4)ccc3-c3ccc(-c4ccc(N(c5ccccc5)c5ccccc5)cc4)cc32)c2ccccc21
- absorption maximum (in ClCCl): 380 nm

Compound: C(=C\c1c[nH]cn1)/c1cc[n+]2ccc(/C=C/c3c[nH]cn3)cc2c1
- absorption maximum (in CO): 430 nm

Compound: F[B-]1(F)OC(c2ccc(Br)cc2)=Cc2ccc3ccccc3[n+]21
- absorption maximum (in ClC(Cl)Cl): 430 nm

Compound: CCCCCn1c2ccc(S(=O)(=O)O)cc2c(=O)c2cc(S(=O)(=O)O)ccc21
- absorption maximum (in CS(C)=O): 406 nm
- absorption maximum (in O): 406 nm

Compound: O=C1C=CC2=Cc3ccccc3B(O)N12
- absorption maximum (in CC#N): 360 nm
- absorption maximum (in CO): 364 nm
- absorption maximum (in CS(C)=O): 364 nm
- absorption maximum (in ClC(Cl)Cl): 365 nm

Compound: COc1ccc2c(c1)CCC1=C(c3ccccc3)C3=Nc4c(-c5ccccc5)c5c(n4[B-](F)(F)[N+]3=C12)-c1ccc(OC)cc1CC5
- absorption maximum (in ClC(Cl)Cl): 740 nm

Compound: C(#Cc1ccccc1)C(C#Cc1ccccc1)=Cc1c2ccccc2c(C=C(C#Cc2ccccc2)C#Cc2ccccc2)c2ccccc12
- absorption maximum (in ClC(Cl)Cl): 432 nm

Compound: CC(C)(C)c1ccc(C#Cc2cc3c(C#Cc4ccc(C(C)(C)C)cc4)c(C#Cc4ccc(C(C)(C)C)cc4)c4cc(C#Cc5ccc(C(C)(C)C)cc5)cc5c(C#Cc6ccc(C(C)(C)C)cc6)c(C#Cc6ccc(C(C)(C)C)cc6)c(c2)c3c45)cc1
- absorption maximum (in ClCCl): 414 nm

Compound: Cc1nc2cccc(-c3nc4ccc(Cl)cc4o3)c2c(=O)[nH]1
- absorption maximum (in CN(C)C=O): 310 nm

Compound: Cc1nnc(-c2ccc(-n3c4ccccc4c4ccccc43)cc2)o1
- absorption maximum (in Cc1ccccc1): 340 nm

Compound: c1ccc(-c2nc(-c3ccccc3)c(N(c3ccccc3)c3ccccc3)s2)cc1
- absorption maximum (in ClC(Cl)Cl): 367 nm

Compound: CN(C)c1ccc(-c2cc(-c3ccc(C#N)cc3)nc(-c3ccccc3)n2)cc1
- absorption maximum (in ClC(Cl)Cl): 376 nm

Compound: CC1=N/C(=C\c2ccc(N(C)C)cc2)C(=O)N1C
- absorption maximum (in C1CCCCC1): 405 nm
- absorption maximum (in C1CCOC1): 419 nm
- absorption maximum (in CC#N): 422 nm
- absorption maximum (in CO): 435 nm
- absorption maximum (in CS(C)=O): 434 nm
- absorption maximum (in ClCCl): 428 nm
- absorption maximum (in O): 446 nm

Compound: N#Cc1nn(-c2ccccc2C(F)(F)F)nc1N1CCCC1
- absorption maximum (in CC#N): 326 nm

Compound: COc1ccc2c(c1)c(=O)c1ccccc1n2CCCCCC(=O)O
- absorption maximum (in O): 422 nm

Compound: c1ccc(-c2ncc3ccccn23)cc1
- absorption maximum (in ClC(Cl)Cl): 317 nm

Compound: Cc1ccc(N(c2ccc(C)cc2)c2ccc3c4cccc5c(N(c6ccc(C)cc6)c6ccc(C)cc6)ccc(c6cccc2c63)c54)cc1
- absorption maximum (in C1CCCCC1): 506 nm
- absorption maximum (in C1CCOC1): 502 nm
- absorption maximum (in CC#N): 496 nm
- absorption maximum (in Cc1ccccc1): 507 nm
- absorption maximum (in ClCCl): 473 nm

Compound: c1ccc(-c2nc(-c3ccccc3)c(-c3ccccc3)[nH]2)cc1
- absorption maximum (in CC#N): 311.5 nm and 312 nm
- absorption maximum (in CO): 311.5 nm

Compound: CCC(CC)COC1=CC2=C3c4cc(OCC(CC)CC)c(-c5ccccc5)n4[B-](F)(F)[n+]4c3n(c3cc(C(C)(C)C)ccc34)[B-](F)(F)[N+]2=C1c1ccccc1
- absorption maximum (in C1CCOC1): 702 nm
- absorption maximum (in CC#N): 694 nm
- absorption maximum (in ClCCl): 703 nm

Compound: Cc1cc(C)c(C2=C3C=C(/C=C/C(=O)OC(C)(C)C)C=[N+]3[B-](F)(F)n3cccc32)c(C)c1
- absorption maximum (in ClCCl): 538 nm

Compound: Cc1cc2c(cc1C)NC(=O)CC(=O)N2
- absorption maximum (in CS(C)=O): 297 nm

Compound: Cc1nc(-c2ccccc2)c2ccccn12
- absorption maximum (in C1CCCCC1): 374 nm
- absorption maximum (in CC#N): 364 nm
- absorption maximum (in CO): 354 nm
- absorption maximum (in ClCCl): 367 nm
- absorption maximum (in O): 338 nm

Compound: C[n+]1ccc(-c2ccc([O-])cc2)cc1
- absorption maximum (in CC#N): 472 nm
- absorption maximum (in CC(C)=O): 479 nm
- absorption maximum (in CC(C)O): 457 nm
- absorption maximum (in CCC(C)O): 460 nm
- absorption maximum (in CCCO): 441 nm
- absorption maximum (in CO): 418 nm
- absorption maximum (in CS(C)=O): 473 nm
- absorption maximum (in O): 394 nm

Compound: Cc1nnc(-c2cc(-n3c4ccccc4c4ccccc43)c(-n3c4ccccc4c4ccccc43)cc2-c2nnc(C)o2)o1
- absorption maximum (in ClCCl): 353 nm

Compound: O=C([O-])COc1cc(NC(=O)c2ccc(-c3c4cc(Cl)c(=O)cc-4oc4cc(O)c(Cl)cc34)c(C(=O)[O-])c2)ccc1N(CC(=O)[O-])CC(=O)[O-]
- absorption maximum (in O): 506 nm

Compound: COc1ccc2c(c1)c1cc(OC)ccc1n2-c1cccc(-n2c3ccc(OC)cc3c3cc(OC)ccc32)c1C#N
- absorption maximum (in Cc1ccccc1): 391 nm

Compound: CC(=O)O[B-]1(OC(C)=O)OC(/C=C/c2ccccc2)=CC(/C=C/c2ccccc2)=[O+]1
- absorption maximum (in C1CCOC1): 422 nm
- absorption maximum (in CC#N): 422 nm
- absorption maximum (in CC(C)=O): 422 nm
- absorption maximum (in CS(C)=O): 428 nm
- absorption maximum (in Cc1ccccc1): 424 nm
- absorption maximum (in ClC(Cl)Cl): 426 nm
- absorption maximum (in ClCCl): 424 nm

Compound: CCCCCCc1ccc(-c2ccc(-c3cc(-c4ccc(-c5ccc(CCCCCC)s5)s4)c4ccc5c(-c6ccc(-c7ccc(CCCCCC)s7)s6)cc(-c6ccc(-c7ccc(CCCCCC)s7)s6)c6ccc3c4c65)s2)s1
- absorption maximum (in ClC(Cl)Cl): 451 nm

Compound: Oc1cc(-c2cccs2)ccc1-c1nc2ccccc2s1
- absorption maximum (in ClCCl): 364 nm

Compound: COc1cc2cc(OC)c(-c3ccc([N+](=O)[O-])cc3)cc2cc1-c1ccc([N+](=O)[O-])cc1
- absorption maximum (in ClC(Cl)Cl): 336 nm
- absorption maximum (in ClCCl): 337 nm

Compound: COc1cc(OC)cc(C2=C3C(C)=C(I)C(C)=[N+]3[B-](F)(F)n3c(/C=C/c4c[nH]c5ccccc45)c(I)c(C)c32)c1
- absorption maximum (in C1CCOC1): 627 nm
- absorption maximum (in CS(C)=O): 636 nm
- absorption maximum (in ClCCl): 618 nm

Compound: O=C1c2cccc3cc(C#CC#Cc4cc5c6c(cccc6c4)C(=O)N(c4ccccc4)C5=O)cc(c23)C(=O)N1c1ccccc1
- absorption maximum (in ClCCl): 326 nm

Compound: COc1ccc(N(c2ccc(OC)cc2)c2ccc3c4cccc5c(N(c6ccc(OC)cc6)c6ccc(OC)cc6)ccc(c6cccc2c63)c54)cc1
- absorption maximum (in C1CCCCC1): 519 nm
- absorption maximum (in C1CCOC1): 515 nm
- absorption maximum (in CC#N): 508 nm
- absorption maximum (in Cc1ccccc1): 519 nm
- absorption maximum (in ClCCl): 514 nm

Compound: c1ccc2c(c1)c1ccc3cccc4c3c1c2c1c2cccc3ccc5c6ccccc6c(c5c32)c41
- absorption maximum (in ClCCl): 625 nm

Compound: N#Cc1ccc(-c2cc(-c3ccc(N4CCCC4)cc3)nc(-c3ccccc3)n2)cc1
- absorption maximum (in ClC(Cl)Cl): 385 nm

Compound: CN(C)c1ccc(/C=C/c2cnc(/C=C/c3ccc(C#N)cc3)o2)cc1
- absorption maximum (in ClCCl): 432 nm

Compound: CC1(C)CCc2c(c3ccccc3c3nc4c(nc23)c2c(c3ccccc34)OC(C)(C)CC2)O1
- absorption maximum (in C1CCCCC1): 431.03 nm
- absorption maximum (in C1COCCO1): 434.97 nm
- absorption maximum (in CC#N): 434.97 nm
- absorption maximum (in CC(C)O): 431.97 nm
- absorption maximum (in CCCCCC): 429.92 nm
- absorption maximum (in ClC(Cl)Cl): 437.06 nm
- absorption maximum (in c1ccccc1): 434.97 nm

Compound: CC(=O)[B-]1(C(C)=O)OC(c2ccc3ccccc3c2)=CC(c2ccc3ccccc3c2)=[O+]1
- absorption maximum (in CC#N): 420 nm
- absorption maximum (in ClC(Cl)(Cl)Cl): 415 nm

Compound: CN(C)c1ccc(/C=C/c2ccnc(/C=C/c3ccc(N(C)C)cc3)n2)cc1
- absorption maximum (in ClCCl): 385 nm

Compound: Fc1ccc(C2=[N+]3C(=Nc4c5ccccc5c(-c5ccc(F)cc5)n4[B-]3(F)F)c3ccccc32)cc1
- absorption maximum (in ClCCl): 713 nm

Compound: Cc1cc(=O)oc2c1cc(Br)c1occ(C)c12
- absorption maximum (in C1CCCCC1): 333 nm
- absorption maximum (in CCO): 330 nm

Compound: O=CN1N=C(c2ccc(Br)cc2)C[C@@H]1c1ccccc1
- absorption maximum (in C1CCCCC1): 305 nm
- absorption maximum (in C1COCCO1): 303 nm
- absorption maximum (in CC#N): 298 nm
- absorption maximum (in CCO): 297 nm
- absorption maximum (in CCOC(C)=O): 301 nm
- absorption maximum (in CO): 298 nm
- absorption maximum (in CS(C)=O): 302 nm
- absorption maximum (in Cc1ccccc1): 306 nm
- absorption maximum (in ClC(Cl)(Cl)Cl): 306 nm

Compound: F[B-]1(F)OC(c2ccccc2)=CC(c2ccccc2)=[O+]1
- absorption maximum (in CC#N): 376 nm
- absorption maximum (in ClC(Cl)(Cl)Cl): 375 nm

Compound: CCn1c2ccccc2c2cc(C#Cc3cc(C#Cc4ccc5c(c4)c4ccccc4n5CC)nc(C#N)n3)ccc21
- absorption maximum (in C1CCOC1): 410 nm
- absorption maximum (in CCOC(C)=O): 405 nm
- absorption maximum (in CN(C)C=O): 411 nm
- absorption maximum (in Cc1ccccc1): 410 nm
- absorption maximum (in ClCCl): 415 nm

Compound: Cc1ccc2c(nc3c(=O)n(C)c(=O)nc-3n2C)c1C
- absorption maximum (in CC#N): 448 nm

Compound: N#Cc1cccc(N2c3ccccc3C(c3ccccc3)(c3ccccc3)c3ccccc32)c1
- absorption maximum (in Cc1ccccc1): 284 nm

Compound: c1ccc2c(c1)Sc1ccccc1N2c1ccc2c(c1)C1(CCCC1)c1cc(N3c4ccccc4Sc4ccccc43)ccc1-2
- absorption maximum (in Cc1ccccc1): 308 nm

Compound: Cn1cccc1-c1ccc(C#N)cc1
- absorption maximum (in C1CCOC1): 326 nm
- absorption maximum (in CC#N): 322 nm
- absorption maximum (in CCCCCC): 317 nm
- absorption maximum (in CCCCOCCCC): 321 nm
- absorption maximum (in CCOCC): 321 nm

Compound: Cc1ccc(-c2ccc(/C=C/c3cccs3)cn2)nc1
- absorption maximum (in CC#N): 348 nm

Compound: CCCCCCCCCCOc1ccc(C#Cc2ccc(C#Cc3ccc(OCCCCCCCCCC)c(OCCCCCCCCCC)c3)c3nc4c5ccccc5c5ccccc5c4nc23)cc1OCCCCCCCCCC
- absorption maximum (in C1CCOC1): 461 nm
- absorption maximum (in Cc1ccccc1): 461 nm
- absorption maximum (in ClCCl): 461 nm

Compound: COc1ccc(-c2cc3c(ccc4sc5ccc6sc(-c7ccc(C#N)cc7)cc6c5c43)s2)cc1
- absorption maximum (in ClCCl): 383 nm

Compound: CC(C)(C)c1ccc(-c2nc(-c3ccc(C(C)(C)C)cc3)nc(-c3ccc(-n4c5ccccc5c5c6oc7ccccc7c6ccc54)c(C#N)c3)n2)cc1
- absorption maximum (in C1CCOC1): 379.46 nm
